Marks after values point to notes of the source that are not given here. Residues, ends and D or L forms follow the SMILES beside them.
Assay: Serum biochemistry of rats at the end of treatment
Assay type: in vivo, Sprague-Dawley rats
Details: median (IQR)

For `CC[C@H](C)[C@@H]1NC(=O)[C@@H]2CSSC[C@H](NC(=O)[C@H](CCCNC(=N)N)NC(=O)[C@@H]3CSSC[C@H](NC1=O)C(=O)N[C@@H]([C@@H](C)O)C(=O)N[C@@H](CCCNC(=N)N)C(=O)NCC(=O)N[C@@H](Cc1ccccc1)C(=O)N3)C(=O)N[C@@H](CC(C)C)C(=O)N[C@H]1CSSC[C@H](NC(=O)[C@H](C(C)C)NC(=O)CNC(=O)[C@H](CCCNC(=N)N)NC(=O)[C@H](CCCNC(=N)N)NC1=O)C(=O)N[C@@H](CCCNC(=N)N)C(=O)N2` [RTD-1, Rhesus theta (θ) defensin-1] (HELM PEPTIDE1{G.F.C.R.C.L.C.R.R.G.V.C.R.C.I.C.T.R}$PEPTIDE1,PEPTIDE1,3:R3-16:R3|PEPTIDE1,PEPTIDE1,5:R3-14:R3|PEPTIDE1,PEPTIDE1,7:R3-12:R3|PEPTIDE1,PEPTIDE1,1:R1-18:R2$$$V2.0), the A/G (female, 5 mg/kg/day) was 2.1 (0.2), the ALP (female, 5 mg/kg/day) was 92.0 (21.0) U/L and the ALT (female, 5 mg/kg/day) was 35.0 (7.0) U/L. For the same molecule, the AST (female, 5 mg/kg/day) was 139.0 (35.0) U/L, the Albumin (female, 5 mg/kg/day) was 3.9 (0.3) g/dL and the CK (female, 5 mg/kg/day) was 792.0 (198.0) U/L. The Calcium (female, 5 mg/kg/day) was 9.8 (0.2) mg/dL, the Chloride (female, 5 mg/kg/day) was 105.0 (2.0) mmol/L and the Cholesterol (female, 5 mg/kg/day) was 55.0 (15.0) mg/dL. The Creatinine (female, 5 mg/kg/day) was 0.3 (0.0) mg/dL, the GGT (female, 5 mg/kg/day) was 0.0 (0.0) U/L and the Globulin (female, 5 mg/kg/day) was 1.8 (0.1) g/dL. The Glucose (female, 5 mg/kg/day) was 97.0 (16.0) mg/dL, the Phos (female, 5 mg/kg/day) was 7.3 (0.8) mg/dL and the Potassium (female, 5 mg/kg/day) was 4.9 (0.4) mmol/L. For the same molecule, the Sodium (female, 5 mg/kg/day) was 143.0 (1.0) mmol/L, the T-Bil (female, 5 mg/kg/day) was 0.0 (0.0) mg/dL and the TP (female, 5 mg/kg/day) was 5.8 (0.5) g/dL. The Triglycerides (female, 5 mg/kg/day) was 25.0 (7.0) mg/dL, the “Urea N” value (female, 5 mg/kg/day) was 20.0 (2.0) mg/dL and the A/G (female, 10 mg/kg/day) was 2.2 (0.2). For the same molecule, the ALP (female, 10 mg/kg/day) was 109.5 (30.5) U/L, the ALT (female, 10 mg/kg/day) was 32.5 (6.0) U/L and the AST (female, 10 mg/kg/day) was 122.0 (14.3) U/L. For the same molecule, the Albumin (female, 10 mg/kg/day) was 3.9 (0.1) g/dL, the CK (female, 10 mg/kg/day) was 473.5 (211.3) U/L and the Calcium (female, 10 mg/kg/day) was 10.0 (0.3) mg/dL. For the same molecule, the Chloride (female, 10 mg/kg/day) was 105.0 (2.0) mmol/L, the Cholesterol (female, 10 mg/kg/day) was 55.0 (26.5) mg/dL and the Creatinine (female, 10 mg/kg/day) was 0.3 (0.0) mg/dL. For the same molecule, the GGT (female, 10 mg/kg/day) was 0.0 (0.0) U/L, the Globulin (female, 10 mg/kg/day) was 1.8 (0.2) g/dL and the Glucose (female, 10 mg/kg/day) was 99.0 (5.5) mg/dL. The Phos (female, 10 mg/kg/day) was 7.1 (0.8) mg/dL, the Potassium (female, 10 mg/kg/day) was 5.1 (0.5) mmol/L and the Sodium (female, 10 mg/kg/day) was 142.5 (1.0) mmol/L. The T-Bil (female, 10 mg/kg/day) was 0.0 (0.0) mg/dL, the TP (female, 10 mg/kg/day) was 5.7 (0.4) g/dL and the Triglycerides (female, 10 mg/kg/day) was 26.0 (11.5) mg/dL. The “Urea N” value (female, 10 mg/kg/day) was 21.0 (1.8) mg/dL, the A/G (female, 20 mg/kg, day 2) was 3.0 (0.4)^c^,^d^,^e and the ALP (female, 20 mg/kg, day 2) was 142.0 (34.5)^d^,^e U/L. The ALT (female, 20 mg/kg, day 2) was 62.0 (28.5)^c^,^d^,^e U/L, the AST (female, 20 mg/kg, day 2) was 397.0 (345.5)^d^,^e U/L and the Albumin (female, 20 mg/kg, day 2) was 3.0 (0.6)^d^,^e g/dL. The CK (female, 20 mg/kg, day 2) was 1,506.0 (2,604.5) U/L, the Calcium (female, 20 mg/kg, day 2) was 10.3 (0.6)^c^,^d mg/dL and the Chloride (female, 20 mg/kg, day 2) was 104.0 (3.0) mmol/L. For the same molecule, the Cholesterol (female, 20 mg/kg, day 2) was 52.0 (6.5) mg/dL, the Creatinine (female, 20 mg/kg, day 2) was 0.5 (0.2)^c^,^d^,^e mg/dL and the GGT (female, 20 mg/kg, day 2) was 4.0 (5.5)^c^,^d^,^e U/L. For the same molecule, the Globulin (female, 20 mg/kg, day 2) was 1.0 (0.3)^c^,^d^,^e g/dL, the Glucose (female, 20 mg/kg, day 2) was 218.0 (70.0)^c^,^d^,^e mg/dL and the Phos (female, 20 mg/kg, day 2) was 9.3 (5.0) mg/dL. For the same molecule, the Potassium (female, 20 mg/kg, day 2) was 4.9 (0.7) mmol/L, the Sodium (female, 20 mg/kg, day 2) was 141.0 (2.5)^c mmol/L and the T-Bil (female, 20 mg/kg, day 2) was 0.0 (0.0) mg/dL. The TP (female, 20 mg/kg, day 2) was 3.9 (0.8)^c^,^d^,^e g/dL, the Triglycerides (female, 20 mg/kg, day 2) was 106.0 (36.5)^c^,^d^,^e mg/dL and the “Urea N” value (female, 20 mg/kg, day 2) was 20.0 (3.0) mg/dL. The A/G (male, 5 mg/kg/day) was 2.2 (0.3), the ALP (male, 5 mg/kg/day) was 212.0 (40.3) U/L and the ALT (male, 5 mg/kg/day) was 40.0 (9.8) U/L. For the same molecule, the AST (male, 5 mg/kg/day) was 133.0 (34.0) U/L, the Albumin (male, 5 mg/kg/day) was 3.8 (0.0) g/dL and the CK (male, 5 mg/kg/day) was 765.5 (395.5) U/L. For the same molecule, the Calcium (male, 5 mg/kg/day) was 9.8 (0.4) mg/dL, the Chloride (male, 5 mg/kg/day) was 104.5 (1.8) mmol/L and the Cholesterol (male, 5 mg/kg/day) was 70.5 (10.3) mg/dL. The Creatinine (male, 5 mg/kg/day) was 0.2 (0.1) mg/dL, the GGT (male, 5 mg/kg/day) was 0.0 (0.0) U/L and the Globulin (male, 5 mg/kg/day) was 1.7 (0.2) g/dL. For the same molecule, the Glucose (male, 5 mg/kg/day) was 72.5 (16.3) mg/dL, the Phos (male, 5 mg/kg/day) was 8.5 (0.5) mg/dL and the Potassium (male, 5 mg/kg/day) was 5.2 (0.2) mmol/L. The Sodium (male, 5 mg/kg/day) was 144.0 (1.8) mmol/L, the T-Bil (male, 5 mg/kg/day) was 0.0 (0.0) mg/dL and the TP (male, 5 mg/kg/day) was 5.5 (0.2) g/dL. For the same molecule, the Triglycerides (male, 5 mg/kg/day) was 37.0 (21.5) mg/dL, the “Urea N” value (male, 5 mg/kg/day) was 16.5 (4.0) mg/dL and the A/G (male, 10 mg/kg/day) was 2.4 (0.2). The ALP (male, 10 mg/kg/day) was 212.5 (51.5) U/L, the ALT (male, 10 mg/kg/day) was 32.5 (4.5) U/L and the AST (male, 10 mg/kg/day) was 113.5 (16.8) U/L. The Albumin (male, 10 mg/kg/day) was 3.7 (0.2) g/dL, the CK (male, 10 mg/kg/day) was 612.5 (254.8) U/L and the Calcium (male, 10 mg/kg/day) was 9.7 (0.2) mg/dL. For the same molecule, the Chloride (male, 10 mg/kg/day) was 105.0 (1.0) mmol/L, the Cholesterol (male, 10 mg/kg/day) was 66.0 (14.3) mg/dL and the Creatinine (male, 10 mg/kg/day) was 0.3 (0.1) mg/dL. For the same molecule, the GGT (male, 10 mg/kg/day) was 0.0 (0.0) U/L, the Globulin (male, 10 mg/kg/day) was 1.6 (0.2) g/dL and the Glucose (male, 10 mg/kg/day) was 83.0 (6.8) mg/dL. For the same molecule, the Phos (male, 10 mg/kg/day) was 8.6 (1.0) mg/dL, the Potassium (male, 10 mg/kg/day) was 5.1 (0.3) mmol/L and the Sodium (male, 10 mg/kg/day) was 144.0 (0.0) mmol/L. The T-Bil (male, 10 mg/kg/day) was 0.0 (0.0) mg/dL, the TP (male, 10 mg/kg/day) was 5.4 (0.3) g/dL and the Triglycerides (male, 10 mg/kg/day) was 29.0 (5.3) mg/dL. The “Urea N” value (male, 10 mg/kg/day) was 19.0 (3.5) mg/dL, the A/G (male, 20 mg/kg, day 2) was 2.7 (0.1)^c^,^d^,^e and the ALP (male, 20 mg/kg, day 2) was 232.0 (45.0) U/L. The ALT (male, 20 mg/kg, day 2) was 74.0 (38.0)^d^,^e U/L, the AST (male, 20 mg/kg, day 2) was 245.0 (100.0)^d^,^e U/L and the Albumin (male, 20 mg/kg, day 2) was 2.7 (0.0)^c^,^d^,^e g/dL. The CK (male, 20 mg/kg, day 2) was 707.0 (615.0) U/L, the Calcium (male, 20 mg/kg, day 2) was 9.4 (0.5)^d mg/dL and the Chloride (male, 20 mg/kg, day 2) was 101.0 (1.0)^c^,^d^,^e mmol/L. For the same molecule, the Cholesterol (male, 20 mg/kg, day 2) was 67.0 (7.0) mg/dL, the Creatinine (male, 20 mg/kg, day 2) was 0.4 (0.1)^c^,^d^,^e mg/dL and the GGT (male, 20 mg/kg, day 2) was 0.0 (0.0) U/L. For the same molecule, the Globulin (male, 20 mg/kg, day 2) was 1.0 (0.0)^c^,^d^,^e g/dL, the Glucose (male, 20 mg/kg, day 2) was 175.0 (35.0)^c^,^d^,^e mg/dL and the Phos (male, 20 mg/kg, day 2) was 9.3 (3.8) mg/dL. For the same molecule, the Potassium (male, 20 mg/kg, day 2) was 5.1 (0.6) mmol/L, the Sodium (male, 20 mg/kg, day 2) was 140.0 (2.0)^c^,^d^,^e mmol/L and the T-Bil (male, 20 mg/kg, day 2) was 0.1 (0.2) mg/dL. For the same molecule, the TP (male, 20 mg/kg, day 2) was 3.7 (0.1)^c^,^d^,^e g/dL, the Triglycerides (male, 20 mg/kg, day 2) was 193.0 (111.0)^c^,^d^,^e mg/dL and the “Urea N” value (male, 20 mg/kg, day 2) was 28.0 (6.0)^c^,^d^,^e mg/dL.
